The text below walks through data of patent publication US10035790B2, “RORγ modulators” (BRISTOL-MYERS SQUIBB COMPANY, priority 2012, dated 2018).

One test has as its target T1, ligand binding domain of human RORγ (A262-S507) (Homo sapiens, UniProt P51449).
T1 construct: made in house; host or cells: E. coli
T1 sequence (P51449 262-507): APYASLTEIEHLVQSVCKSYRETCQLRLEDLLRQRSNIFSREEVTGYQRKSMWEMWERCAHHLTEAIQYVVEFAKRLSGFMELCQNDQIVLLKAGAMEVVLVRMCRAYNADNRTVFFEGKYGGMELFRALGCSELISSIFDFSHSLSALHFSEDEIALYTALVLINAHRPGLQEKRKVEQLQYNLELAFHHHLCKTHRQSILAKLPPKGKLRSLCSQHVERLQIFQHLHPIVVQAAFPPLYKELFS
Put plainly: General RORγ SPA binding assay (competition with [3H]25-hydroxycholesterol). Conditions: IC50, RORγ SPA binding assay, inhibition of [3H]25-hydroxycholesterol binding. An outline of the steps:
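Scintillation counts from copper His-tag SPA beads (4 mg/mL, 30 min) gave percent inhibition of radioligand binding, from which IC50 values are derived. The E. coli-expressed His-tagged domain (50 nM) is first exposed to compound for 15 min at room temperature in PBS containing 0.5% fatty acid free BSA.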
Broadly, the IC50 is the concentration that inhibits the measured activity by half. In the case of `Cc1nc(N)nc(C2CCN(C(=O)Oc3ccccc3F)CC2)c1C(=O)NCc1ccnc(C(F)(F)F)n1` [Compound A126, 2-Fluorophenyl 4-{2-amino-6-methyl-5-[({[2-(trifluoromethyl)pyrimidin-4-yl]methyl}amino)carbonyl]pyrimidin-4-yl}piperidine-1-carboxylate], the IC50 was 0.0152 µM.

The test is the same for the next values; noted with them: RORγ SPA binding assay, inhibition of [3H]25-hydroxycholesterol binding; read-out: IC50.
In the case of `Cc1nc(N)nc(C2CCN(C(=O)Oc3ccc(F)cc3F)CC2)c1-c1nnc(-c2ccnc(C(F)(F)F)n2)o1` [Compound C56, 2,4-Difluorophenyl 4-(2-amino-6-methyl-5-{5-[2-(trifluoromethyl)pyrimidin-4-yl]-1,3,4-oxadiazol-2-yl}pyrimidin-4-yl)piperidine-1-carboxylate], the IC50 is 0.0247 µM.
Take `CC(O)(COc1ccnc(C(F)(F)F)n1)c1cnc(N)nc1C1CCN(C(=O)Cc2c(F)cccc2F)CC1` (centres unmarked) [Compound D30, 2-(2-Amino-4-{1-[(2,6-difluorophenyl)acetyl]piperidin-4-yl}pyrimidin-5-yl)-1-{[2-(trifluoromethyl)pyrimidin-4-yl]oxy}propan-2-ol]: the IC50 is 0.0043 µM.
In the case of `Cc1cc(C)cc(CNC(=O)c2cnc(C3CC3)nc2C2CCN(C(=O)Cc3c(F)cccc3F)CC2)c1` [Compound A43, 2-cyclopropyl-4-(1-(2-(2,6-difluorophenyl)acetyl)piperidin-4-yl)-N-(3,5-dimethylbenzyl)pyrimidine-5-carboxamide], the IC50 was found to be 0.0054 µM.
The same measure, in the same setting: for `Cc1nc(N)nc(C2CCN(C(=O)Oc3c(F)cccc3F)CC2)c1-c1nnc(-c2ccnc(C(F)(F)F)n2)o1` [Compound C50, 2,6-Difluorophenyl 4-(2-amino-6-methyl-5-{5-[2-(trifluoromethyl)pyrimidin-4-yl]-1,3,4-oxadiazol-2-yl}pyrimidin-4-yl)piperidine-1-carboxylate] the value was 0.0061 µM.
On the same count and under the same terms, for `Cc1cc(C)cc(CNC(=O)c2cncnc2C2CCN(C(=O)Cc3c(F)cccc3F)CC2)c1` [Compound A57, 4-(1-(2-(2,6-difluorophenyl)acetyl)piperidin-4-yl)-N-(3,5-dimethylbenzyl)pyrimidine-5-carboxamide] the value was 0.0218 µM.
Still for that read-out and setting: for `CNC(=O)C(O)(COc1cccc(C(F)(F)F)n1)c1cnc(C)nc1C1CCN(C(=O)Nc2c(F)cccc2F)CC1` (centres unmarked) [Compound N45, N-(2,6-Difluorophenyl)-4-{5-[1-hydroxy-2-(methylamino)-2-oxo-1-({[6-(trifluoromethyl)pyridin-2-yl]oxy}methyl)ethyl]-2-methylpyrimidin-4-yl}piperidine-1-carboxamide] the value was 0.0819 µM.
Turning to `Cc1cc(C)cc(CNC(=O)c2cnc(C)nc2C2CCN(CCc3ccccc3)CC2)c1` [Compound A101, N-(3,5-dimethylbenzyl)-2-methyl-4-(1-phenethylpiperidin-4-yl)pyrimidine-5-carboxamide], the IC50 is 0.634 µM.
Still for that read-out and setting: under `Cc1ncc(C(C)(O)CNc2cc(C(F)(F)F)ccn2)c(C2CCN(C(=O)Cc3c(F)cccc3F)CC2)n1` (centres unmarked) [Compound D8, 2-(2,6-difluorophenyl)-1-(4-(5-(2-hydroxy-1-((4-(trifluoromethyl)pyridin-2-yl)amino)propan-2-yl)-2-methylpyrimidin-4-yl)piperidin-1-yl)ethanone] stands 0.105 µM.
As for `CC(O)(COc1cccc(C(F)(F)F)n1)c1cnc(N)nc1C1CCN(C(=O)Nc2c(F)cccc2F)CC1` (centres unmarked) [Compound D27, 4-[2-Amino-5-(1-hydroxy-1-methyl-2-{[6-(trifluoromethyl)pyridin-2-yl]oxy}ethyl)pyrimidin-4-yl]-N-(2,6-difluorophenyl)piperidine-1-carboxamide], the IC50 stood at 0.0036 µM.
Same read-out and setting: under `Nc1ncc(C(O)CNc2ccnc(C(F)(F)F)n2)c(C2CCN(C(=O)Nc3c(F)cccc3F)CC2)n1` (centres unmarked) [Compound N12, 4-[2-amino-5-(1-hydroxy-2-{[2-(trifluoromethyl)pyrimidin-4-yl]amino}ethyl)pyrimidin-4-yl]-N-(2,6-difluorophenyl)piperidine-1-carboxamide] stands 0.0695 µM.
On the same count and under the same terms, under `Cc1nc(C)c(-c2nc(-c3cccc(C(F)(F)F)c3)no2)c(C2CCN(C(=O)Cc3c(F)cccc3F)CC2)n1` [Compound C1, 4-{1-[(2,6-Difluorophenyl)acetyl]piperidin-4-yl}-2,6-dimethyl-5-{3-[3-(trifluoromethyl)phenyl]-1,2,4-oxadiazol-5-yl}pyrimidine] stands 0.114 µM.
Same read-out and setting: for `C/C(=N/Oc1cc(F)nc(F)c1)c1cnc(N)nc1C1CCN(C(=O)Nc2c(F)cccc2F)CC1` [Compound B57, 4-(2-Amino-5-{(1Z)—N-[(2,6-difluoropyridin-4-yl)oxy]ethanimidoyl}pyrimidin-4-yl)-N-(2,6-difluorophenyl)piperidine-1-carboxamide] the value was 0.0927 µM; for `Cc1nc(C)c(C(O)COc2cccc(C(F)(F)F)n2)c(C2CCN(C(=O)Nc3c(F)cccc3F)CC2)n1` (centres unmarked) [Compound N6, N-(2,6-Difluorophenyl)-4-[5-(1-hydroxy-2-{[6-(trifluoromethyl)pyridin-2-yl]oxy}ethyl)-2,6-dimethylpyrimidin-4-yl]piperidine-1-carboxamide], 0.004 µM.
On to `Cc1ncc(C(=O)NCc2cccc(Cl)c2C)c(C2CCN(C(=O)Cc3c(F)cccc3F)CC2)n1` [Compound A63, N-(3-chloro-2-methylbenzyl)-4-(1-(2-(2,6-difluorophenyl)acetyl)piperidin-4-yl)-2-methylpyrimidine-5-carboxamide], for which the IC50 amounted to 0.063 µM.
On the same count and under the same terms, for `Cc1ncc(C(C)(O)CNc2ccnc(C(F)(F)F)n2)c(C2CCN(C(=O)Cc3c(F)cccc3F)CC2)n1` (centres unmarked) [Compound D5, 2-(2,6-difluorophenyl)-1-(4-(5-(2-hydroxy-1-((2-(trifluoromethyl)pyrimidin-4-yl)amino)propan-2-yl)-2-methylpyrimidin-4-yl)piperidin-1-yl)ethanone] the value was 0.0084 µM; for `C/C(=N/Oc1cccc(C(F)(F)F)c1)c1cnc(C)nc1C1CCN(C(=O)Nc2c(F)cccc2F)CC1` [Compound B44, N-(2,6-Difluorophenyl)-4-{2-methyl-5-[(1Z)—N-{[3-(trifluoromethyl)phenyl]oxy}ethanimidoyl]pyrimidin-4-yl}piperidine-1-carboxamide], 0.0849 µM; for `Cc1ncc(C(O)(CCN)COc2cccc(C(F)(F)F)n2)c(C2CCN(C(=O)Nc3c(F)cccc3F)CC2)n1` (centres unmarked) [Compound N31, 4-(5-(4-Amino-2-hydroxy-1-(6-(trifluoromethyl)pyridin-2-yloxy)butan-2-yl)-2-methylpyrimidin-4-yl)-N-(2,6-difluorophenyl)piperidine-1-carboxamide], 0.62 µM.
Still for that read-out and setting: for `Cc1nc(C)c(-c2nnc(-c3ccc(Cl)cn3)o2)c(C2CCN(C(=O)Cc3c(F)cccc3F)CC2)n1` [Compound C20, 1-(4-(5-(5-(5-chloropyridin-2-yl)-1,3,4-oxadiazol-2-yl)-2,6-dimethylpyrimidin-4-yl)piperidin-1-yl)-2-(2,6-difluorophenyl)ethanone] the value was 0.657 µM; for `CC(=O)N1CCC(NCC(O)(COc2cccc(C(F)(F)F)n2)c2cnc(C)nc2C2CCN(C(=O)Nc3c(F)cccc3F)CC2)C1` (centres unmarked) [Compound N40, 4-(5-{2-[(1-Acetylpyrrolidin-3-yl)amino]-1-hydroxy-1-({[6-(trifluoromethyl)pyridin-2-yl]oxy}methyl)ethyl}-2-methylpyrimidin-4-yl)-N-(2,6-difluorophenyl)piperidine-1-carboxamide], 0.134 µM.
On the same count and under the same terms, for `O=C(NNc1cccc(Cl)c1)c1cnc(C2CC2)nc1C1CCN(C(=O)Cc2c(F)cccc2F)CC1` [Compound G2, N′-(3-chlorophenyl)-2-cyclopropyl-4-(1-(2-(2,6-difluorophenyl)acetyl)piperidin-4-yl)pyrimidine-5-carbohydrazide] the value was 0.0046 µM.
With `Cc1nc(N)nc(C2CCN(C(=O)Nc3c(F)cccc3F)CC2)c1-c1nnc(-c2cccc(C(F)(F)F)n2)o1` [Compound C59, 4-(2-Amino-6-methyl-5-{5-[6-(trifluoromethyl)pyridin-2-yl]-1,3,4-oxadiazol-2-yl}pyrimidin-4-yl)-N-(2,6-difluorophenyl)piperidine-1-carboxamide], the IC50 came to 0.0279 µM.
Same read-out and setting: for `Cc1nc(N)nc(C2CCN(C(=O)Oc3ccccc3Cl)CC2)c1-c1nnc(-c2ccnc(C(F)(F)F)n2)o1` [Compound C51, 2-Chlorophenyl 4-(2-amino-6-methyl-5-{5-[2-(trifluoromethyl)pyrimidin-4-yl]-1,3,4-oxadiazol-2-yl}pyrimidin-4-yl)piperidine-1-carboxylate] the value was 0.0105 µM; for `Cc1ncc(C(C)(O)CNc2nccc(C(F)(F)F)n2)c(C2CCN(C(=O)Cc3c(F)cccc3F)CC2)n1` (centres unmarked) [Compound D23, 2-(4-{1-[(2,6-Difluorophenyl)acetyl]piperidin-4-yl}-2-methylpyrimidin-5-yl)-1-{[4-(trifluoromethyl)pyrimidin-2-yl]amino}propan-2-ol], 0.0185 µM.
Same read-out and setting: for `COC(=O)C(C)(CNc1ccnc(C(F)(F)F)n1)c1cnc(C)nc1C1CCN(C(=O)Cc2c(F)cccc2F)CC1` (centres unmarked) [Compound F4, Methyl 2-(4-(1-(2-(2,6-difluorophenyl)acetyl)piperidin-4-yl)-2-methylpyrimidin-5-yl)-2-methyl-3-(2-(trifluoromethyl)pyrimidin-4-ylamino)propanoate] the value was 0.195 µM; for `C/C(=N\Oc1cccc(C)c1)c1cnc(C)nc1C1CCN(C(=O)Cc2c(F)cccc2F)CC1` [Compound B11, (E)-2-(2,6-difluorophenyl)-1-(4-(2-methyl-5-(1-((m-tolyloxy)imino)ethyl)pyrimidin-4-yl)piperidin-1-yl)ethanone], 0.0017 µM.
